Each structure is given as a SMILES string. Values joined by “and” are separate entries in the source; they are usually repeats but may differ in a detail not shown here. Equal values may be shown once.

A short description of series [1]: Oxygen radical scavenging capacity (ORAC) assay. The following applies: for ORAC value: Trolox equivalents per 1 g of compound, mean ± SD, n = 3; for decrease of ORAC antioxidant activity relative to 4-hydroxybenzoic acid: additional methoxy group(s) in ortho-positions of the p-OH. The procedure:
The antioxidant activity of compounds was measured using the ORAC assay according to a previous method. Briefly, 150 μL 8.16 × 10^−5 mM fluorescein working solution was added to the inner wells of a 96-well microplate. Then the plate was incubated at 37 °C for 10 min, after which another 25 μL diluted antioxidants were added using Trolox as standard and 75 mM buffer solution as blank. The plate was shaken every 3 min during the incubation. […] All samples were analyzed in triplicate at three different dilutions. ORAC values were expressed as mean micromoles of Trolox equivalents (TE) per 1 g of the compound.

Series [2] has as its target α-glucosidase (EC3.2.1.20). In words: α-Glucosidase inhibition assay. The class given is biochemical. The following applies: mean ± SD; samples in 30% (v/v) ethanol-PBS. The procedure: The inhibition assay with the α-glucosidase was carried out as a previously described protocol. […] The incubated system contained 50 μL of samples and 100 μL of the α-glucosidase solution was added to a 96-well plate at 37 °C for 10 min. Then, 50 μL of the substrate pNP-α-G was added to start the reaction at 37 °C. After 10 min, 100 μL of 1 M Na2CO3 solution was added to inactivate α-glucosidase and halt the generation of substrates, and the absorbance was read at 405 nm with the micro-plate reader (SpectraMax 190, Molecular Devices Co., Sunnyvale, CA, USA). The percentage of inhibition and the values of IC50 of samples were calculated by the same equation as α-amylase inhibition assay.

Series [3] deals with α-amylase (EC3.2.1.1). In words: α-Amylase inhibition assay. The class given is biochemical. The following applies: for IC50: mean ± SD, samples in 30% (v/v) ethanol-PBS. The procedure: The inhibition assay with the α-amylase was performed as a previously reported protocol with a slight modification. […] Then, 1 U mL^−1 α-amylase (EC3.2.1.1), soluble starch solution (1%, w/v) and 3,5-dinitrosalicylic acid (DNS) were all dissolved in PBS (50 mM, pH 6.9). The mixed system contained a 500 μL sample or blank solution and 500 μL α-amylase incubated at 37 °C for 10 min, followed by the addition of 500 μL of preheated starch solution into the mixed incubated system to initiate the enzymatic hydrolysis reaction (37 °C, 10 min). Finally, 1 mL of DNS was added to halt the reaction, and the mixture was then allowed to sit in boiling water for 5 min. The absorbance was measured at 540 nm using a microplate reader (SpectraMax 190, Molecular Devices Co., Sunnyvale, CA, USA) at room temperature. The inhibition rate of the samples was calculated using the following equation: Inhibition rate (%)=[1−(Asample−Asample blank)/(Acontrol−Acontrol blank)]×100 where Asample, Asample blank, Acontrol, Acontrol blank represent the absorbance of the presence and absence of enzymes in sample solutions, and the absorbance of the presence and absence of enzymes in buffer solutions. The half-maximal inhibitory concentration (IC50) of each compound was obtained by regression analysis.

The nature of series [4]: Dissolution in 30% (v/v) ethanol-water solvent system. It counts as physicochemical. The following applies: high-concentration.
The subject of series [5] is HepG2 cells. The series can be described thus: Cellular antioxidant activity (CAA) assay. The class given is cell-based. The following applies: for CAA value: converted from EC50, quercetin equivalents; for EC50: Homo sapiens, HepG2, HepG2 cells. The procedure: HepG2 cells (ATCC Co., Manassas, VA, USA) were incubated in DMEM with 1% penicillin-streptomycin and 10% FBS and maintained at 37 °C with 5% CO2. The modified methylene blue assay was used to determine cytotoxicity.
The CAA assay was performed, according to Wolfe et al., with slight modification. In brief, 6 × 10^4 HepG2 cells were placed in each well of a black-walled 96-microwell plate. 200 μL of PBS was added to the edge of the plate to prevent the edge effect. After adherence, cells were treated with a range of concentrations of benzoic acid derivatives and a standard (quercetin) containing 50 μM DCFH-DA for 1 h under the same culture condition. After removing the supernatant medium, the cells were washed with or without PBS. Then promptly added 600 μM ABAP into each well except blank groups before reading at 485 nm excitation and 538 nm emission using a multifunctional microplate detector (Molecular Devices, Sunnyvale, CA, USA). The fluorescence values were recorded every 5 min for 1 h. The CAA values were obtained by converting the EC50 values and presented as μmol quercetin equivalents (QE)/100 μmol.

`COc1cc(C(=O)Cl)c(O)c(O)c1O` [Compound 1, 2,3,4-trihydroxy-5-methoxy benzoyl chloride]: the ORAC value in series [1] is 4094.6 ± 32.1 μmol TE/g.
What is called IC50 is the concentration at which inhibition is half-maximal. High values mean weaker potency in that assay, low ones greater potency in that assay. Regarding `COc1ccc(O)c(C(=O)O)c1` [Compound 2, 2-hydroxy-5-methoxybenzoic acid], the IC50 in series [2] was 26.1 ± 0.67 mM; in series [3], 40.5 ± 0.44 mM. Also, the ORAC value in series [1] was 32648.1 ± 2181.8 μmol TE/g.
Regarding `CC(=O)SC(C)=O` [Compound 3, acetyl sulfide], the ORAC value in series [1] was determined as 1.3 ± 0.2 μmol TE/g.
For `O=C(O)c1cc(O)ccc1O` [Compound 4, gentisic acid], the IC50 worked out at 30.5 ± 1.02 mM in series [2] and 36 ± 2.23 mM in series [3]. In addition, the ORAC value in series [1] is listed as 23113.1 ± 1057.9 μmol TE/g.
On to `COc1ccc(C(=O)O)cc1O` [Compound 5, 3-hydroxy-4-methoxybenzoic acid], for which the “solubility in 30% (v/v) ethanol-water system” value in series [4] is given as “cannot be dissolved”. Further, the ORAC value in series [1] was 20705.9 ± 835.9 μmol TE/g.
In turn, `O=C(O)c1ccc(O)cc1` [Compound 7, 4-hydroxybenzoic acid] yielded an IC50 in series [2] of 34.1 ± 1.51 mM. Besides, the ORAC value in series [1] was found to be 14874.9 ± 599.2 μmol TE/g. Also, in series [3], the “α-amylase inhibition (in words)” value is recorded as “did not show any inhibition effect” and the IC50 is over 100 mM.
What is called EC50 is the concentration at which the effect is half-maximal. The low end stands for higher potency in that assay, the high end for lower potency in that assay. Take `COc1cc(C(=O)O)ccc1O` [Compound 8, vanillic acid]: the IC50 is 29.7 ± 0.33 mM in series [2] and over 100 mM in series [3]. Also, the ORAC value in series [1] worked out at 12945.8 ± 1419.3 μmol TE/g. The “decrease of ORAC antioxidant activity relative to 4-hydroxybenzoic acid” value in series [1] is reported as 1.15 folds. In addition, the “cellular uptake rate (CAA value of the PBS wash/no PBS wash × 100%)” value in series [5] (HepG2 cells) was 71.53%. Further, the CAA value in series [5] (HepG2 cells, PBS wash protocol) was 6.18 μmol QE/100 μmol and 6.18 ± 0.09 μmol QE/100 μmol; in series [5] (HepG2 cells, no PBS wash protocol), 8.64 μmol QE/100 μmol and 8.64 ± 0.53 μmol QE/100 μmol. Moreover, the EC50 in series [5] (PBS wash protocol) was found to be 0.21 ± 0.00322 mM; in series [5] (no PBS wash protocol), 0.0591 ± 0.00374 mM.
Consider `Cc1cncc(CC(O)C(O)CO)n1` (stereo not shown) [Compound 9, 2-methyl-6-(2′,3′,4′-trihydroxybutyl)-pyrazine], for which the ORAC value in series [1] was determined as 78.0 ± 2.9 μmol TE/g.
The same measure, in the same setting: then `COc1cc(OC2OC(CO)C(O)C(O)C2O)cc(O)c1OC` [Compound 10, 3-hydroxy-4,5-dimethoxyphenyl-β-D-glucopyranoside], with 4177.5 ± 324.2 μmol TE/g; and `COc1ccc(OC2OC(CO)C(O)C(O)C2O)cc1OC` [Compound 11, 3,4-dimethoxyphenyl-O-β-D-glucopyranoside], with 56.5 ± 2.8 μmol TE/g; and `COc1cc(OC)c(OC2OC(CO)C(O)C(O)C2O)c(OC)c1` [Compound 12, 2,4,6-trimethoxyphenyl-1-O-β-D-glucopyranoside], with 80.2 ± 2.3 μmol TE/g.
Turning to `COc1cc(C(=O)O)cc(OC)c1O` [Compound 13, syringic acid], the IC50 in series [2] is 20.3 ± 0.39 mM; in series [3] it was over 100 mM. The ORAC value in series [1] is reported as 1879.9 ± 44.7 μmol TE/g. For the same compound, the “decrease of ORAC antioxidant activity relative to 4-hydroxybenzoic acid” value in series [1] is on record as 7.91 folds.
Consider `COc1ccc(OC)cc1` [Compound 14, 1,4-dimethoxybenzene], for which the ORAC value in series [1] was found to be 2154.2 ± 183.1 μmol TE/g.
Turning to `O=c1c(O)c(-c2ccc(O)c(O)c2)oc2cc(O)cc(O)c12` [Quercetin, quercetin, reference compound], the results for the EC50 in series [5] (PBS wash protocol) and in series [5] (no PBS wash protocol) were 0.013 mM and 0.00509 mM, respectively.

For the origin of these results see publication PMC9563075, “Identification and Structure–Activity Relationship of Recovered Phenolics with Antioxidant and Antihyperglycemic Potential from Sugarcane Molasses Vinasse” (Foods, 2022).
